Assay results from patent US20230248627A1, “COMPOSITION FOR HAIR FOLLICLE MODULATION, METHODS AND USES THEREOF” (priority 2020, published 2023).
Where a name gives a salt, the structure may show the parent alone.

Key:
[1] = tested on: human melanocytes (SK-MEL-23 cell line); test: Intracellular melanin quantification in melanocytes treated in vitro; assay type: cell-based; conditions: 10 µM dipyridamole, 1% (v/v) DMSO, 3 days, normalized by protein levels
Description: This example discloses an “in vitro” treatment of human melanocytes (SK-MEL-23 cell line) with a solution containing a modulation bioactive agent for darkening the skin.
In an embodiment, the bioactive agent used in this example was Dipyridamole as darkening agent in a solution containing water and DMSO.
Cells were seeded on 24-well plates at density of 9.0x10^4 cells/well and treated next day with 10 µM of dipyridamole and 1% (v/v) DMSO. In the control, cells were seeded on 24-well plates at density of 9.0x10^4 cells/well and treated next day with 1% (v/v) DMSO.
The intracellular melanin quantification was performed after 3 days. The method for quantifying melanin in hair was as described by Fernandes B. et al., 2016 [51]. The melanin contents were normalized by protein levels in each sample (DC Protein assay). Melanin change in cells treated with Dipyridamole was calculated using the following mathematical formula: […]

human scalp [2] = test: Pilot clinical study: hair melanin quantification after topical scalp application; assay type: in vivo; conditions: for visible effect on hair colour: after 5 weeks of treatment; for Effectiveness (% of volunteers) / Hair Melanin change (% of control), max.: 5 weeks, 3 times per week
Description: All the results present on the following described examples were performed in a pilot clinical study with intervention of cosmetic products (RNEC number: 92938), not contested by the Portuguese Legal Competent Authorities.
This example discloses the treatment of human scalp with a formulation containing a modulation bioactive agent for lightening the hair.
The modulation bioactive agent used in this example was Rivastigmine hydrogen tartrate as lightening agent in a formulation containing water, a thickener agent with emulsifying properties - Lecigel™, a preservative agent - Euxyl® PE 9010, denaturing alcohol and Transcutol® CG.
The volunteers for the application test of the formulation with the modulation agent Rivastigmine hydrogen tartrate had black to medium brown hair.
Each volunteer received the formulation without the agent Rivastigmine hydrogen tartrate and the formulation with the agent Rivastigmine hydrogen tartrate.
(§1) On each volunteer, the hair was shaved in two different posterior scalp locations, of approximately 1 cm^2 each, and the formulations were applied for 5 weeks, three times a week.
(§2) The formulations with and without Rivastigmine were applied directly on scalp. Ten microliters per 1 cm^2 of the control formulation without Rivastigmine hydrogen tartrate were applied to one of the two shaved scalp areas while ten microliters per 1 cm^2 of the formulation with Rivastigmine hydrogen tartrate were applied to the other shaved scalp area.
After the 15th application of formulations with and without the modulation agent, a final picture was taken, the growth rate of the hairs was measured, and some hairs were plucked for further tests.
The hair melanin quantification process was performed after the clinical cosmetic study conclusion, using hairs collected from the scalp areas treated with and without Rivastigmine hydrogen tartrate in a formulation. The control means the hair collected from the scalp area treated with the formulation without Rivastigmine hydrogen tartrate.
In an embodiment, the method for quantifying melanin in hair was as described by Fernandes B. et al., 2016 [51]. Hair samples were digested in NaOH and the solutions obtained normalized to 1 mg/mL of hair. Complete oxidation of hair lysates was performed with hydrogen peroxide and melanin content in hair samples calculated by fluoresce spectroscopy using a standard curve generated by the fluorescence of oxidized melanin standards. Melanin change in hair treated with a formulation with Rivastigmine was calculated using the following mathematical formula: […]
This example discloses the treatment of human scalp with a formulation containing a modulation bioactive agent for darkening the hair.
In an embodiment, the bioactive agent used in this example was Dipyridamole as darkening agent in a formulation containing water, a thickener agent with emulsifying properties - Lecigel™, a preservative agent - Euxyl® PE 9010, denaturing alcohol and Transcutol® CG.
The volunteers for the application test of the formulation with the modulation bioactive agent Dipyridamole had blond hair of different shades.
Each volunteer received the formulation without the agent Dipyridamole and the formulation with the agent Dipyridamole.
as §2, with “In an embodiment, the” for “The”, “Dipyridamole” for “Rivastigmine”, “Dipyridamole” for “Rivastigmine hydrogen tartrate”
(§3) After the 15th application of formulations with and without the modulation bioactive agent, a final picture was taken, the growth rate of the hairs was measured, and some hairs were plucked for further tests.
The hair melanin quantification process was performed after the clinical cosmetic study conclusion, using hairs collected from the scalp areas treated with and without Dipyridamole in a formulation. […]

human scalp [3] = test: Pilot clinical study: hair curvature index after topical scalp application; assay type: in vivo; conditions: for visible effect on hair shape: after 5 weeks of treatment; for Effectiveness (% of volunteers) / Hair shape change (% of control), max. / Hair shape change (% of control), mean: 5 weeks, 3 times per week; for Hair shape change (% of control), max. / Hair shape change (% of control), mean: curvature index
From the text: This example discloses the treatment of human scalp with a formulation containing a modulation bioactive agent for straightening the hair.
The bioactive agent used in this example was Midodrine hydrochloride as straightening agent in a formulation containing water, a thickener agent with emulsifying properties - Lecigel™, a preservative agent – Euxyl® PE 9010, denaturing alcohol and Transcutol® CG.
The volunteers for the application test of the formulation with the modulation bioactive agent Midodrine hydrochloride had curly hair.
Each volunteer received the formulation without the agent Midodrine hydrochloride and the formulation with the agent Midodrine hydrochloride.
as §1
as §2, with “Midodrine” for “Rivastigmine”, “Midodrine hydrochloride” for “Rivastigmine hydrogen tartrate”
After the 15th application of formulations with and without the modulation agent, a final picture was taken showing both sites of application, the growth rate of the hairs was measured, and some hairs were plucked for further tests.
(§4) The curvature index was determined after the clinical cosmetic study conclusion, using hairs collected from the scalp areas treated with and without the modulation bioactive agent in a formulation. The control was the hair collected from scalp area treated with the formulation without the modulation bioactive ingredient.
The effect on curvature index was calculated according to the following formula: […]
Each hair was individually measured over a white paper (hair in a relaxed form) and a force was applied in order to keep the hair straight (under stress) and, in this way, measure the length of hair in stressed form.
This example discloses the treatment of human scalp with a formulation containing a modulation bioactive agent for curling the hair.
The modulation bioactive agent used in this example was Topiramate as curling agent in a formulation containing water, a thickener agent with emulsifying properties - Lecigel™, a preservative agent - Euxyl® PE 9010, denaturing alcohol and Transcutol® CG.
The volunteers for the application test of the formulation with the modulation agent Topiramate had straight hair.
Each volunteer received the formulation without the agent Topiramate and the formulation with the agent Topiramate.
as §2, with “Topiramate” for “Rivastigmine”, “Topiramate” for “Rivastigmine hydrogen tartrate”
as §3
as §4, with “collected from the scalp area” for “collected from scalp area”

[4] = Straightening, 0.25% w/w formulation, curly-haired volunteers
[5] = Curling, 1.75% w/w formulation, straight-haired volunteers

Structure (SMILES): OCCN(CCO)c1nc(N2CCCCC2)c2nc(N(CCO)CCO)nc(N3CCCCC3)c2n1 [Dipyridamole]
- increase in melanin production relative to the control experiment [1]: 3.5 fold
- visible effect on hair colour (human scalp [2]; 0.01% w/w formulation on scalp): induced a darkening effect
- Effectiveness (% of volunteers) (human scalp [2]; Darkening, 0.01% w/w formulation on scalp, blond hair): 67.0 % of volunteers
- Hair Melanin change (% of control), max. (human scalp [2]; Darkening, 0.01% w/w formulation, blond hair): +57.9%

Structure (SMILES): COc1ccc(OC)c(C(O)CNC(=O)CN)c1 (stereo not drawn) [Midodrine HCl, Midodrine hydrochloride]
- visible effect on hair shape (human scalp [3]; 0.25% w/w formulation on scalp, very curly hair): induced a straightening effect
- Effectiveness (% of volunteers) (human scalp [3]; Straightening, 0.25% w/w formulation on scalp, curly-haired volunteers): 75.0%
- Hair shape change (% of control), max. (human scalp [3]; [4]): +120.0%
- Hair shape change (% of control), mean (human scalp [3]; [4]): +76.0%

Structure (SMILES): CCN(C)C(=O)Oc1cccc([C@H](C)N(C)C)c1 [Rivastigmine, Rivastigmine hydrogen tartrate]
- visible effect on hair colour (human scalp [2]; 0.2% w/w formulation on scalp): induced a lightening effect
- Effectiveness (% of volunteers) (human scalp [2]; Lightening, 0.2% w/w formulation on scalp, black to medium brown hair): 50.0 % of volunteers
- Hair Melanin change (% of control), max. (human scalp [2]; Lightening, 0.2% w/w formulation, black to medium brown hair): -26.3%

Structure (SMILES): CC1(C)O[C@@H]2[C@@H](CO[C@@]3(COS(N)(=O)=O)OC(C)(C)O[C@@H]23)O1 [Topiramate]
- visible effect on hair shape (human scalp [3]; 1.75% w/w formulation on scalp, straight hair): induced a curling effect
- Effectiveness (% of volunteers) (human scalp [3]; Curling, 1.75% w/w formulation on scalp, straight-haired volunteers): 83.3%
- Hair shape change (% of control), max. (human scalp [3]; [5]): -11.0%
- Hair shape change (% of control), mean (human scalp [3]; [5]): -10.0%
